Read-outs that look alike come from different tables or passages of the source.
Legend:
[1] = mean arterial blood pressure, indwelling cannulae inserted into the tail artery; type: in vivo, Spontaneously hypertensive rats; settings: 50 mg/kg, ip
Description: (§1) Various compounds of the invention were tested for their effects in vivo on peripheral dopamine (DA) and norepinephrine (NE) levels substantially by the procedure of DaPrada and Zurcher, Life Sci., 19, 1161, (1976). Spontaneously hypertensive rats were dosed twice, the second dose being about 18 hours after the first, and were sacrificed about 2 hours after the second dose.
Further, the same rats were dosed with a suspension or solution at a dose of 50 mg/kg of test compound i.p. and mean arterial blood pressure was determined with indwelling cannulae inserted into the tail artery.

[2] = molecular target: T1, DBH (Bos taurus, UniProt P15101); test: in vitro DBH inhibition, conversion of tyramine to octopamine; type: biochemical
T1 sequence (P15101 1-610): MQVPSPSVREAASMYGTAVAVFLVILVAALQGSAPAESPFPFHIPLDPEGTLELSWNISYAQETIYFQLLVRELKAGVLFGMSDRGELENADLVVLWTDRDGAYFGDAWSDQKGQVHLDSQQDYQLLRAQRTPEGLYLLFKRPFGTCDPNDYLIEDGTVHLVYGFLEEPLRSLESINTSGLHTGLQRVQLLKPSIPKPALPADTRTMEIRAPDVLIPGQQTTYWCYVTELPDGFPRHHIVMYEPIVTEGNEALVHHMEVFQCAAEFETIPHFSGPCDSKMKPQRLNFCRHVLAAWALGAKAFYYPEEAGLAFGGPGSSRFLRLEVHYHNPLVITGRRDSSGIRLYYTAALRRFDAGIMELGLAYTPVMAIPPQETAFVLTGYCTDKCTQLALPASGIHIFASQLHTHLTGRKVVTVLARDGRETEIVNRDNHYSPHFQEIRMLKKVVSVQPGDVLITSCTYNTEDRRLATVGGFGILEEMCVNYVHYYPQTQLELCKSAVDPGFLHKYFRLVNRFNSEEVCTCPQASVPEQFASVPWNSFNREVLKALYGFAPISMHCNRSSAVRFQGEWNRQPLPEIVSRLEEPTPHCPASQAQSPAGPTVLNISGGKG
Description: Compounds of the invention and other compounds useful in the method of the invention were screened for in vitro DBH inhibition by a standard procedure for assaying conversion of tyramine to octopamine in the presence of DBH. Octopamine was assayed following sodium periodate oxidation to p-hydroxybenzaldehyde by measuring spectrophotometric absorbance at 330 nm. Inhibition is given in molar concentration of compound at which DBH activity was halved (IC50). Melting points (mp) are given in °C. By this procedure fusaric acid has an IC50 of about 8×10^-7.

[3] = test system: peripheral dopamine (DA) and norepinephrine (NE) levels; test: in vivo effects on peripheral dopamine (DA) and norepinephrine (NE) levels; set-up: species or system Spontaneously hypertensive rats; settings: dosed twice about 18 hours apart, sacrificed about 2 hours after second dose
Description: as §1

[4] = Teresawa et al., Japan Cir. J. 35, 339 (1971); cited from earlier work
[5] = octopamine assayed after periodate oxidation, absorbance at 330 nm, read-out: IC50 (molar concentration of compound at which DBH activity was halved)

IC50 [2, 5] [nM]	Structure (SMILES)	further results
1000	Sc1nnnn1Cc1cc(Cl)cc(Cl)c1 [Example 2, 1-(3,5-Dichlorobenzyl)-5-mercaptotetrazole]	reduction in mean arterial pressure [1]: significant reduction in mean arterial pressure; DA/NE Ratio [3]: 0.053 ± 0.0035; DA ([3]; micrograms per gram of tissue): 0.360 ± 0.015 µg/g; NE ([3]; micrograms per gram of tissue): 6.838 ± 0.257 µg/g
350	Fc1cc(F)cc(CCCn2nnnc2S)c1 [Example 7, 1-(3-(3,5-Difluorophenyl)propyl)-5-mercaptotetrazole]	
13000	Sc1nnnn1Cc1ccccc1 [Example 6, 1-Benzyl-5-mercaptotetrazole]	reduction in mean arterial pressure [1]: significant reduction in mean arterial pressure
1500	Fc1cc(F)cc(Cn2nnnc2S)c1 [Example 1, 1-(3,5-Difluorobenzyl)-5-mercaptotetrazole]	
9200	Sc1nnnn1Cc1c(Cl)cccc1Cl [Example 3, 1-(2,6-Dichlorobenzyl)-5-mercaptotetrazole]	
2400	Sc1nnnn1CCCc1ccccc1 [Example 5, 1-(3-Phenylpropyl)-5-mercaptotetrazole]	
790	Oc1ccc(CCCn2nnnc2S)cc1 [Example 11, 1-(3-(4-Hydroxyphenyl)propyl)-5-mercaptotetrazole]	
15000	COc1ccc(Cn2nnnc2S)cc1 [Example 4, 1-(4-Methoxybenzyl)-5-mercaptotetrazole]	
	CCCCc1ccc(C(=O)O)nc1 [Fusaric acid, fusaric acid, reference compound]	hepatotoxicity [4]: hepatotoxic; IC50 [2]: ~800 nM
80	Oc1c(F)cc(CCCn2nnnc2S)cc1F [Example 12, 1-(3-(3,5-Difluoro-4-hydroxyphenyl)propyl)-5-mercaptotetrazole]	
390	Sc1nnnn1CCCc1cc(Cl)cc(Cl)c1 [Example 9, 1-(3-(3,5-Dichlorophenyl)propyl)-5-mercaptotetrazole]	

Reference: patent US4707488A, “Dopamine-β-hydroxylase inhibitors and use thereof” (Smithkline Beckman Corporation, priority 1985, dated 1987)
